Holding throughout (type): physicochemical
Series [1] can be described thus: Amount of phase-changing probe 2-EHDG required until phase structure changes (Wm phase to Om phase + W phase); liquid physical property index read from calibration curve.
Experiment in series [2]: as above
The following applies: for Solution physical property index (corresponding HLB) from calibration curve: 100 mmol/kg. As to the method: (§1) Using the following components, precursor samples and standard samples for preparing calibration curves were prepared, and using any of the following phase-changing probes, an amount of the phase-changing probe required until a phase structure of a standard sample changed was quantified for each of a plurality of surfactants (G). The calibration curves were prepared from the plurality of quantitative values obtained. • Surfactant (G): a plurality of polyoxyethylene lauryl ethers with different average numbers of added moles of the ethylene oxide • Oil component: an isoparaffin with an average number of carbons of 16 (hereinafter, referred to as C16 isoparaffin) • Phase-changing probe: 2-ethylhexyl diglycol or butyldiglycol
(§2) The concentration of surfactant (G) in each precursor sample was 200 mmol/kg (the balance was water).
(§3) The amount of the oil component added per 100 g of each precursor sample was determined to be 4 g by assigning 50 to X in the aforementioned formula (I).
For this standard sample, 2-ethylhexyl diglycol (hereinafter, sometimes also referred to as 2-EHDG) was used as the phase-changing probe, and an amount of the phase-changing probe required until a phase structure of the standard sample changed from a micellar solution phase (Wm phase) to a mixed system of a reversed micellar oil solution phase (Om phase) and a water phase (W phase) was taken as the quantitative value.
(§4) Note that, in either case, the ambient temperature when the phase-changing probe was added to the standard sample was 25° C. Further, in either case, the phase-changing probe was added to the standard sample under the condition of being stirred with a magnetic stirrer.
(§5) Note that the quantitative values and HLB values were entered into spreadsheet software “Excel” (manufactured by Microsoft Corporation) to be processed, thereby obtaining the calibration curves as regression lines (calibration curves 1 and 2). Calibration curves 1 and 2 are shown in Graph A (FIG. 1).
As the oil components, components shown in Table 3 were used; as the phase-changing probe, 2-EHDG was used; and the concentration of surfactant (G) in each precursor sample was 100 mmol/kg. Note that, in this example, the amount of an oil component added per 100 g of each precursor sample was determined to be 2 g by assigning 50 to X in the aforementioned formula (I).
A measurement sample was prepared by adding 2 g of any of the oil components shown in Table 3 per 100 g of the aqueous sample.
2-EHDG as the phase-changing probe was added to the measurement sample under the same conditions as those for preparing the calibration curves, and an amount of the phase-changing probe required until a phase structure changed was quantified.

A short description of series [3]: Amount of phase-changing probe BDG required until phase structure changes (Om phase + W phase to Wm phase). The conditions noted are these: surfactant 200 mmol/kg; C16 isoparaffin 4 g per 100 g; 25° C.; for calibration curve 2. As to the method:
as §1, §2, §3
On the other hand, in the case where an average number of added moles of the ethylene oxide of surfactant (G) was relatively small (the average number of added moles was 2 to 5), the initial phase structure of the standard sample was a mixed system of a reversed micellar oil solution phase (Om phase) and a water phase (W phase). For this standard sample, butyldiglycol (hereinafter, sometimes also referred to as BDG) was used as the phase-changing probe, and an amount of the phase-changing probe required until a phase structure of the standard sample changed from a mixed system of a reversed micellar oil solution phase (Om phase) and a water phase (W phase) to a micellar solution phase (Wm phase) was taken as the quantitative value.
as §4, §5

The mark [4] stands for this setting: surfactant 100 mmol/kg, solvent BDG 5 mass %, C16 isoparaffin 2 g per 100 g, 25° C., calibration curve 10, no inorganic salt.
The mark [5] stands for this setting: surfactant 100 mmol/kg, solvent BDG 5 mass %, C16 isoparaffin 2 g per 100 g, no inorganic salt.
Setting [6] is: concentration of polyoxyethylene lauryl ether 5 mmol/kg, C16 isoparaffin 0.1 g per 100 g, calibration curve 8.
The mark [7] stands for this setting: concentration of polyoxyethylene lauryl ether 350 mmol/kg, C16 isoparaffin 7 g per 100 g, calibration curve 9.
[8] abbreviates: surfactant 100 mmol/kg, oil component C16 isoparaffin 2 g per 100 g, calibration curve 3.
The mark [9] stands for this setting: surfactant 100 mmol/kg, oil component Cyclohexane 2 g per 100 g, calibration curve 7.
Setting [10] is: surfactant 100 mmol/kg, oil component Decane 2 g per 100 g, calibration curve 4.
Where [11] appears, read: surfactant 100 mmol/kg, oil component Hexadecane 2 g per 100 g, calibration curve 6.
The mark [12] stands for this setting: surfactant 100 mmol/kg, oil component Tetradecane 2 g per 100 g, calibration curve 5.
The mark [13] stands for this setting: surfactant 200 mmol/kg, C16 isoparaffin 4 g per 100 g, 25° C., for calibration curve 1.

`CCCCCCCCCCCC[N+](C)(C)C.[Cl-]` [Lauryltrimethylammonium chloride]: the “Quantitative value (g) of phase-changing probe (2-EHDG)” value (“Quantitative value (g) … (2-EHDG)” below) in series [1] (setting [4]) is on record as 11.04 g. Moreover, the “Solution physical property index (corresponding HLB) from calibration curve 10” value in series [1] (setting [5]) was 14.25.
Consider “polyoxyethylene lauryl ether [Polyoxyethylene lauryl ether 9]”, for which the “Quantitative value (g) … (2-EHDG)” value turned out to be 0.46 g in series [1] (setting [6]); 9.36 g in series [1] (setting [7]); 9.46 g in series [1] (setting [4]); 7.58 g in series [2] (setting [8]); 5.84 g in series [2] (setting [9]); 6.98 g in series [2] (setting [10]). Besides, the “Quantitative value (g) … (2-EHDG)” value in series [2] (setting [11]) turned out to be 7.74 g; in series [2] (setting [12]) it was 7.6 g; in series [2] (setting [13]), 5.38 g.
With “Sodium polyoxyethylene (4 moles on average) lauryl ether sulfate”, the “Quantitative value (g) … (2-EHDG)” value in series [1] (setting [4]) came to 19.88 g. Further, the “Solution physical property index (corresponding HLB) from calibration curve 10” value in series [1] (setting [5]) stood at 17.96.
For `CCCCCCCC[N+](C)(C)Cc1ccccc1.[Cl-]` [Octyldimethylbenzylammonium chloride] the same measures were 9.20 g and 13.48.
The matching figures for Lauryl glucoside: 4.44 g and 11.48.
Regarding “polyoxyethylene lauryl ether [Polyoxyethylene lauryl ether 5]”, the “Quantitative value (g) … (2-EHDG)” value in series [1] (setting [4]) stood at 2.12 g. Besides, the “Quantitative value (g) of phase-changing probe (BDG)” value (from here on “Quantitative value (g) … (BDG)”) in series [3] was determined as 5.5 g.
As to `CCCCC(CC)COC(=O)CC(C(=O)OCC(CC)CCCC)S(=O)(=O)[O-].[Na+]` (stereo not drawn) [Sodium di-2-ethylhexylsulfosuccinate], in series [1] (setting [4]), the “Quantitative value (g) … (2-EHDG)” value turned out to be 5.50 g. In series [1] (setting [5]), the “Solution physical property index (corresponding HLB) from calibration curve 10” value came to 11.93.
Consider “polyoxyethylene lauryl ether [Polyoxyethylene lauryl ether 12]”, for which the “Quantitative value (g) … (2-EHDG)” value in series [1] (setting [6]) is 0.94 g; in series [1] (setting [7]), 11.76 g; in series [1] (setting [4]), 12.5 g; in series [2] (setting [8]) it was 10.24 g; in series [2] (setting [9]), 8.24 g; in series [2] (setting [10]), 9.4 g. The “Quantitative value (g) … (2-EHDG)” value in series [2] (setting [11]) turned out to be 10.24 g; in series [2] (setting [12]), 10.02 g; in series [2] (setting [13]) it was 7.4 g.
On to “polyoxyethylene (6 moles on average) lauryl ether [Polyoxyethylene lauryl ether 6]”, for which the “Quantitative value (g) … (2-EHDG)” value in series [1] (setting [6]) was found to be 0.24 g; in series [1] (setting [7]), 2.44 g; in series [1] (setting [4]), 4.76 g; in series [2] (setting [8]), 2.96 g; in series [2] (setting [9]), 1.96 g; in series [2] (setting [10]) it was 2.78 g. In addition, the “Quantitative value (g) … (2-EHDG)” value was 3.4 g in series [2] (setting [11]), 3.2 g in series [2] (setting [12]) and 1.7 g in series [2] (setting [13]).
For the compound `CCCCCCCCCCCCCC[N+](C)(C)[O-]` [Myristyl dimethylamine oxide], the “Quantitative value (g) … (2-EHDG)” value in series [1] (setting [4]) came to 4.72 g. In addition, the “Solution physical property index (corresponding HLB) from calibration curve 10” value in series [1] (setting [5]) worked out at 11.60.
For `CCCCCCCCCCCC[N+](C)(C)Cc1ccccc1.[Cl-]` [Lauryldimethylbenzylammonium chloride] the same measures were 10.36 g and 13.97.
For `CCCCCCCCCCCC[N+](C)(C)CC(O)CS(=O)(=O)[O-]` (stereo not drawn) [N-lauryl-N,N-dimethyl-N-(2-hydroxysulfopropyl)ammonium sulfobetaine], the “Quantitative value (g) … (2-EHDG)” value was 3.60 g in series [1] (setting [4]); 2.36 g in series [2] (setting [8]); 1.15 g in series [2] (setting [9]); 2.36 g in series [2] (setting [10]); 2.78 g in series [2] (setting [11]); 2.66 g in series [2] (setting [12]). The “Solution physical property index (corresponding HLB) from calibration curve” value in series [2] (oil component C16 isoparaffin, calibration curve 3) is given as 11.46; in series [2] (oil component Decane, calibration curve 4), 11.52; in series [2] (oil component Hexadecane, calibration curve 6), 11.44; in series [2] (oil component Tetradecane, calibration curve 5), 11.47.
On to “polyoxyethylene lauryl ether [Polyoxyethylene lauryl ether 2]”, for which the “Quantitative value (g) … (BDG)” value in series [3] came to 18.57 g.
`CCCCCCCCCCCCCCCC[N+](C)(C)C.[Cl-]` [Palmityltrimethylammonium chloride]: in series [1] (setting [4]), the “Quantitative value (g) … (2-EHDG)” value worked out at 9.12 g. Further, the “Solution physical property index (corresponding HLB) from calibration curve 10” value in series [1] (setting [5]) is listed as 13.45.
For “polyoxyethylene lauryl ether [Polyoxyethylene lauryl ether 3]”, in series [3], the “Quantitative value (g) … (BDG)” value was found to be 13.2 g.
“polyoxyethylene lauryl ether [Polyoxyethylene lauryl ether 21]”: the “Quantitative value (g) … (2-EHDG)” value in series [1] (setting [6]) was 1.28 g; in series [2] (setting [13]) it was 11.92 g.
As to “polyoxyethylene lauryl ether [Polyoxyethylene lauryl ether 4]”, the “Quantitative value (g) … (2-EHDG)” value in series [1] (setting [4]) is on record as 1.16 g. Also, the “Quantitative value (g) … (BDG)” value in series [3] is recorded as 7.29 g.
Turning to “Sodium polyoxyethylene (2 moles on average) lauryl ether sulfate”, in series [1] (setting [4]), the “Quantitative value (g) … (2-EHDG)” value is given as 17.68 g. Also, the “Solution physical property index (corresponding HLB) from calibration curve 10” value in series [1] (setting [5]) was 17.04.

For the origin of these results see patent publication US12153062B2, “Method for estimating physical property of aqueous sample” (Kao Corporation, priority 2018, dated 2024).
